22 compounds from patent US20260078130A1, “NAMPT MODULATORS, PREPARATIONS, AND USES THEREOF” (SIRONAX LTD., priority 2022, published 2026) can be followed below.

Each structure is given as a SMILES string. Where two headings read alike, the source gives them in different places.

Assay [1] has as its system endogenous NAMPT in U2OS cells. Nature of the assay: Cellular NAD+ modulation assay (NAD/NADH-Glo, U2OS cells). It counts as cell-based. Particulars: Homo sapiens; for maximal fold induction: read-out: Cellular Emax. The method in brief: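 NAD/NADH-Glo luminescence quantified NAD+ after acid treatment (60 °C, 15 min) and neutralization of DTAB lysates. Beforehand, U2OS cells seeded 16 h earlier received compound concentration series for 24 h at 37 °C. Values given as half-maximal activation concentration (EC50) and maximal fold change versus DMSO (Emax).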

The target in assay [2] is T1, human enzyme NAMPT (full length) (Homo sapiens, UniProt P43490).
T1 construct: human enzyme NAMPT (full length)
Nature of the assay: NMN fluorescence biochemical assay (stimulation of NMN synthesis by NAMPT). Particulars: for EC50: concentration giving half-maximal activation, read-out: Enzymatic EC50; for Enzymatic Emax: fold change of maximal activation compared to DMSO. The method in brief:
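Full-length human NAMPT (100 nM) was preincubated 15 min at 37 °C with compound in 50 mM Tris-HCl pH 7.5, 10 mM MgCl2, 2 mM DTT, then reacted 1 h at 37 °C with 50 μM NAM, 100 μM PRPP, 4 mM ATP (stated solution concentrations). NMN was derivatised with acetophenone/KOH then formic acid and read at Ex/Em 382/445 nm; EC50 and Emax (fold over DMSO) reported.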

The mark [3] stands for this setting: 24 hours incubation with compound.
Where [4] appears, read: NMN synthesis by purified human NAMPT (100 nM).
The mark [5] stands for this setting: 24 hours incubation, cellular NAD+.
The mark [6] stands for this setting: NMN fluorescence assay, purified human NAMPT 100 nM.

T1 sequence (P43490 whole entry): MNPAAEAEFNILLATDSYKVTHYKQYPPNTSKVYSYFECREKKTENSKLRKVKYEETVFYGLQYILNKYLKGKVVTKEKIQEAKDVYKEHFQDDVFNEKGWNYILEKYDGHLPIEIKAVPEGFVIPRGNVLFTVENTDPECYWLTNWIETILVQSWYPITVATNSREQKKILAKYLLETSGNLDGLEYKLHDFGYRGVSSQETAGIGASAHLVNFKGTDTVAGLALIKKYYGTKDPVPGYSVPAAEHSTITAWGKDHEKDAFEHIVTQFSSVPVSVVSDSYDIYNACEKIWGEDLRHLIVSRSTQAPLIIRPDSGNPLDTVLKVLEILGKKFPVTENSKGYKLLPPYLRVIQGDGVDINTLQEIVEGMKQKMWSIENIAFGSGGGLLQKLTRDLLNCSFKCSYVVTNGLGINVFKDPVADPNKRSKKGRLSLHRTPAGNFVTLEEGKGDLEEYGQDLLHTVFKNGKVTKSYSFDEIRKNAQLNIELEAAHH

As for `Cc1ccc2c(c1)C(C)N(Cc1ccc3[nH]c(=O)oc3c1)C2=O` (single isomer, unassigned) [Compound 163], in assay [1] (setting [3]), the EC50 is 500 to 5000 nM and the maximal fold induction is greater than 1.5. In addition, the 50% effective concentration (EC50) in assay [2] (setting [4]) is no less than 5000 nM. Also, the “Enzymatic Emax” value in assay [2] is “A (A>3)”.
Take `Cn1nnc(Cl)c1CC1c2ccccc2C(=O)N1CC1CC2(CNC(=O)O2)C1` (stereo not shown) [Compound 489, 2-((1-((4-chloro-1-methyl-1H-1,2,3-triazol-5-yl)methyl)-3-oxoisoindolin-2-yl)methyl)-5-oxa-7-azaspiro[3.4]octan-6-one]: in assay [1] (setting [5]), the EC50 is 500 to 5000 nM and the maximal fold induction is greater than 1.5. Moreover, in assay [2] (setting [6]), the EC50 was in the range of 500 to 5000 nM. Further, in assay [2], the “Enzymatic Emax” value was “B (3≥B>2)”.
Consider `COc1ccc(CN2C(=O)c3cnccc3C2Cc2c(C)ccnc2C#N)cc1` (stereo not shown) [Compound 621, 3-((2-(4-methoxybenzyl)-3-oxo-2,3-dihydro-1H-pyrrolo[3,4-c]pyridin-1-yl)methyl)-4-methylpicolinonitrile], for which, in assay [1] (setting [5]), the EC50 fell in the range of 500 to 5000 nM and the maximal fold induction is greater than 1.5. For the same compound, the EC50 in assay [2] (setting [6]) is no less than 5000 nM. In addition, in assay [2], the “Enzymatic Emax” value is “B (3≥B>2)”.
With `O=C1c2ccccc2C(CC2CCCCC2)N1Cc1ccc2[nH]c(=O)oc2c1` (stereo not shown) [Compound 167, 6-((1-(cyclohexylmethyl)-3-oxoisoindolin-2-yl)methyl)benzo[d]oxazol-2(3H)-one], in assay [1] (setting [3]), the EC50 was in the range of 500 to 5000 nM and the maximal fold induction was 1.2 to 1.5. The EC50 in assay [2] (setting [4]) lay in the range of 500 to 5000 nM. Also, in assay [2], the “Enzymatic Emax” value is “B (3≥B>2)”.
`Cn1ncc(Cl)c1CC1c2cc(F)ccc2C(=O)N1CC1CC2(CNC(=O)O2)C1` (stereo not shown) [Compound 486, 2-((3-((4-chloro-1-methyl-1H-pyrazol-5-yl)methyl)-5-fluoro-1-oxoisoindolin-2-yl)methyl)-5-oxa-7-azaspiro[3.4]octan-6-one]: the EC50 was less than 500 nM in assay [1] (setting [5]) and 500 to 5000 nM in assay [2] (setting [6]). The maximal fold induction in assay [1] (setting [5]) was greater than 1.5. Further, the “Enzymatic Emax” value in assay [2] is reported as “B (3≥B>2)”.
As to `Cn1ncc(Cl)c1CC1c2cccc(F)c2C(=O)N1Cc1ccc2[nH]nnc2c1` (stereo not shown) [Compound 342, 2-((1H-benzo[d][1,2,3]triazol-5-yl)methyl)-3-((4-chloro-1-methyl-1H-pyrazol-5-yl)methyl)-7-fluoroisoindolin-1-one], in assay [1] (setting [5]), the EC50 is less than 500 nM and the maximal fold induction was greater than 1.5. Moreover, the EC50 in assay [2] (setting [6]) is less than 500 nM. Besides, the “Enzymatic Emax” value in assay [2] is listed as “A (A>3)”.
As to `NC(=O)c1ccc2c(c1)C(=O)N(Cc1ccc(O)cc1)C2=O` [Compound 38, 2-(4-hydroxybenzyl)-1,3-dioxoisoindoline-5-carboxamide], in assay [1] (setting [3]), the EC50 lay in the range of 5000 to 50000 nM and the maximal fold induction is no more than 1.2. Moreover, in assay [2] (setting [4]), the EC50 was no less than 5000 nM. Besides, the “Enzymatic Emax” value in assay [2] was “A (A>3)”.
As for `Cc1ccccc1CC1c2ncccc2C(=O)N1Cc1ccc2[nH]c(=O)oc2c1` (stereo not shown) [Compound 151, 6-((7-(2-methylbenzyl)-5-oxo-5,7-dihydro-6H-pyrrolo[3,4-b]pyridin-6-yl)methyl)benzo[d]oxazol-2(3H)-one], in assay [1] (setting [3]), the concentration giving a half-maximal response (EC50) lay in the range of 500 to 5000 nM and the maximal fold induction was greater than 1.5. Also, the EC50 in assay [2] (setting [4]) was no less than 5000 nM. Moreover, in assay [2], the “Enzymatic Emax” value is “A (A>3)”.
Regarding `CCc1cccnc1CC1c2ccccc2C(=O)N1Cc1ccc2[nH]c(=O)oc2c1` (stereo not shown) [Compound 182, 6-((1-((3-ethylpyridin-2-yl)methyl)-3-oxoisoindolin-2-yl)methyl)benzo[d]oxazol-2(3H)-one], in assay [1] (setting [3]), the EC50 lay within 500 to 5000 nM and the maximal fold induction is greater than 1.5. Further, the EC50 in assay [2] (setting [4]) lay within 500 to 5000 nM. Further, the “Enzymatic Emax” value in assay [2] is “A (A>3)”.
On to `Cc1ccc2c(c1)C(=O)N(Cc1ccc3[nH]c(=O)oc3c1)C2=O` [Compound 297, 5-methyl-2-((2-oxo-2,3-dihydrobenzo[d]oxazol-6-yl)methyl)isoindoline-1,3-dione], for which, in assay [1] (setting [3]), the concentration giving a half-maximal response (EC50) is 500 to 5000 nM and the maximal fold induction is 1.2 to 1.5. In assay [2] (setting [4]), the EC50 lay in the range of 500 to 5000 nM. Moreover, the “Enzymatic Emax” value in assay [2] is “C (2≥C)”.
`Cc1ncnc(C#N)c1CC1c2ccccc2C(=O)N1CC1CC2(CNC(=O)O2)C1` (stereo not shown) [Compound 491, 6-methyl-5-((3-oxo-2-((6-oxo-5-oxa-7-azaspiro[3.4]octan-2-yl)methyl)isoindolin-1-yl)methyl)pyrimidine-4-carbonitrile]: in assay [1] (setting [5]), the EC50 was less than 500 nM and the maximal fold induction was greater than 1.5. In addition, the EC50 in assay [2] (setting [6]) was in the range of 500 to 5000 nM. In assay [2], the “Enzymatic Emax” value is reported as “B (3≥B>2)”.
On to `COc1ccc(CN2C(=O)c3ccccc3C2Cc2c(C)ccnc2C#N)cn1` (stereo not shown) [Compound 588, 3-((2-((6-methoxypyridin-3-yl)methyl)-3-oxoisoindolin-1-yl)methyl)-4-methylpicolinonitrile], for which, in assay [1] (setting [5]), the EC50 was 500 to 5000 nM and the maximal fold induction was greater than 1.5. Besides, the EC50 in assay [2] (setting [6]) was no less than 5000 nM. Moreover, the “Enzymatic Emax” value in assay [2] was “B (3≥B>2)”.
On to `Cc1scnc1CC1c2ccccc2C(=O)N1Cc1ccc2[nH]c(=O)oc2c1` (stereo not shown) [Compound 217, 6-((1-((5-methylthiazol-4-yl)methyl)-3-oxoisoindolin-2-yl)methyl)benzo[d]oxazol-2(3H)-one], for which the EC50 in assay [1] (setting [3]) and in assay [2] (setting [4]) was 500 to 5000 nM in each case. In addition, the maximal fold induction in assay [1] (setting [3]) is greater than 1.5. Also, the “Enzymatic Emax” value in assay [2] was “A (A>3)”.
Take `O=C1c2ccccc2C(Cc2ccccc2)N1Cc1ccc2[nH]c(=O)oc2c1` (stereo not shown) [Compound 106, 6-((1-benzyl-3-oxoisoindolin-2-yl)methyl)benzo[d]oxazol-2(3H)-one]: in assay [1] (setting [3]), the EC50 fell in the range of 500 to 5000 nM and the maximal fold induction was in the range of 1.2 to 1.5. Besides, in assay [2] (setting [4]), the 50% effective concentration (EC50) fell in the range of 500 to 5000 nM. In addition, the “Enzymatic Emax” value in assay [2] was “A (A>3)”.
As for `N#Cc1ccc2c(c1)C(Cc1c(Cl)ccnc1C#N)N(Cc1ccc3[nH]c(=O)oc3c1)C2=O` (stereo not shown) [Compound 276, 3-((4-chloro-2-cyanopyridin-3-yl)methyl)-1-oxo-2-((2-oxo-2,3-dihydrobenzo[d]oxazol-6-yl)methyl)isoindoline-5-carbonitrile], in assay [1] (setting [3]), the EC50 is less than 500 nM and the maximal fold induction was greater than 1.5. Besides, the EC50 in assay [2] (setting [4]) is less than 500 nM. Also, the “Enzymatic Emax” value in assay [2] is reported as “A (A>3)”.
Take `COc1ccc(CN2C(=O)c3ccccc3C2Cc2c(Cl)cnn2C)cn1` (stereo not shown) [Compound 574, 3-((4-chloro-1-methyl-1H-pyrazol-5-yl)methyl)-2-((6-methoxypyridin-3-yl)methyl)isoindolin-1-one]: in assay [1] (setting [5]), the EC50 is 500 to 5000 nM and the maximal fold induction was greater than 1.5. In addition, the EC50 in assay [2] (setting [6]) is 500 to 5000 nM. Besides, in assay [2], the “Enzymatic Emax” value was “B (3≥B>2)”.
As for `COc1nn(C)c(CC2c3ccccc3C(=O)N2CC2CC3(CNC(=O)O3)C2)c1Cl` (stereo not shown) [Compound 451, 2-((1-((4-chloro-3-methoxy-1-methyl-1H-pyrazol-5-yl)methyl)-3-oxoisoindolin-2-yl)methyl)-5-oxa-7-azaspiro[3.4]octan-6-one], in assay [1] (setting [5]), the EC50 was less than 500 nM and the maximal fold induction was greater than 1.5. Further, the EC50 in assay [2] (setting [6]) is less than 500 nM. Besides, in assay [2], the “Enzymatic Emax” value is recorded as “B (3≥B>2)”.
As for `O=C1c2ccccc2C(Cc2ccncc2)N1Cc1ccc2[nH]c(=O)oc2c1` (stereo not shown) [Compound 130, 6-((1-oxo-3-(pyridin-4-ylmethyl)isoindolin-2-yl)methyl)benzo[d]oxazol-2(3H)-one], in assay [1] (setting [3]), the EC50 lay in the range of 500 to 5000 nM and the maximal fold induction was greater than 1.5. Also, in assay [2] (setting [4]), the EC50 was no less than 5000 nM. Further, in assay [2], the “Enzymatic Emax” value is “B (3≥B>2)”.
Take `Cc1nn(C)c(C#N)c1CC1c2ccccc2C(=O)N1CC1CC2(CNC(=O)O2)C1` (stereo not shown) [Compound 479, 1,3-dimethyl-4-((3-oxo-2-((6-oxo-5-oxa-7-azaspiro[3.4]octan-2-yl)methyl)isoindolin-1-yl)methyl)-1H-pyrazole-5-carbonitrile]: in assay [1] (setting [5]), the EC50 was less than 500 nM and the maximal fold induction was greater than 1.5. In addition, the EC50 in assay [2] (setting [6]) lay within 500 to 5000 nM. For the same compound, the “Enzymatic Emax” value in assay [2] was “B (3≥B>2)”.
On to `Cn1ncc(Cl)c1CC1c2ccccc2C(=O)N1Cc1cnc(O)o1` (stereo not shown) [Compound 605, 3-((4-chloro-1-methyl-1H-pyrazol-5-yl)methyl)-2-((2-hydroxyoxazol-5-yl)methyl)isoindolin-1-one], for which, in assay [1] (setting [5]), the EC50 was less than 500 nM and the maximal fold induction is greater than 1.5. For the same compound, the EC50 in assay [2] (setting [6]) was 500 to 5000 nM. Besides, the “Enzymatic Emax” value in assay [2] is on record as “A (A>3)”.
For the compound `COC1CC2(CC(CN3C(=O)c4ccccc4C3Cc3c(Cl)cnn3C)C2)C1` (stereo not shown) [Compound 599, 3-((4-chloro-1-methyl-1H-pyrazol-5-yl)methyl)-2-((6-methoxyspiro[3.3]heptan-2-yl)methyl)isoindolin-1-one], the EC50 was 500 to 5000 nM in assay [1] (setting [5]) and no less than 5000 nM in assay [2] (setting [6]). Also, in assay [1] (setting [5]), the maximal fold induction lay within 1.2 to 1.5. In addition, the “Enzymatic Emax” value in assay [2] is listed as “C (2≥C)”.
For `N#Cc1ccccc1CC1c2ccccc2C(=O)N1Cc1ccc2[nH]nnc2c1` (stereo not shown) [Compound 189, 2-((2-((1H-benzo[d][1,2,3]triazol-5-yl)methyl)-3-oxoisoindolin-1-yl)methyl)benzonitrile], in assay [1] (setting [3]), the EC50 lay within 500 to 5000 nM and the maximal fold induction was greater than 1.5. Moreover, the EC50 in assay [2] (setting [4]) lay within 500 to 5000 nM. Also, the “Enzymatic Emax” value in assay [2] is reported as “B (3≥B>2)”.

Usually EC50 stands for the concentration that produces a half-maximal response.
